Measured values reported in patent US20260109707A1, “HETEROBIFUNCTIONAL COMPOUNDS AND METHODS OF TREATING DISEASE” (Halda Therapeutics OpCo. Inc., priority 2022, published 2026).
Read-outs that look alike come from different tables or passages of the source.

What was measured:
[1] = tested on: T-Rex 293 cell line SC3 cells having increased expression of androgen receptor protein due to exposure to doxycycline; assay: Cellular growth inhibition assay, T-Rex 293 SC3 cells with doxycycline (CellTiter-Glo, 72 hours); assay type: cell-based; settings: T-Rex 293 SC3 cells with increased androgen receptor expression due to doxycycline (10 ng/mL)
Summary of the method: (§1)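 Doxycycline (10 ng/mL) was either included or omitted to toggle wild-type androgen receptor expression in SC3 cells, a T-Rex 293 clone, grown in stripped-serum, phenol red-free medium. After 72 hours with compound, viable cells were quantified by CellTiter-Glo 2.0.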

[2] = tested on: T-Rex 293 cell line SC3 cells lacking increased expression of androgen receptor protein; assay: Cellular growth inhibition assay, T-Rex 293 SC3 cells without doxycycline (CellTiter-Glo, 72 hours); assay type: cell-based; settings: T-Rex 293 cell line SC3 cells not exposed to doxycycline (lacking increased androgen receptor expression)
Summary of the method: as §1

[3] = tested on: VCaP cells; assay: Cellular growth inhibition assay for VCaP cells (CellTiter-Glo, 72 hours); assay type: cell-based, human
Summary of the method: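 Luminescent viability signal after 72 h of compound exposure gave GI50 values by four-parameter nonlinear regression. Compounds were added in 0.5% DMSO to cells plated 24 h earlier at 5000/well in DMEM containing 10% FBS.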

| Compound | GI50 ([1]; 72 h) [nM] | GI50 ([2]; 72 h) [nM] | GI50 ([3]; Homo sapiens, VCaP, 72 h) [nM] | GI50 [1] [nM] | GI50 [2] [nM] | GI50 [3] [nM] |
| --- | --- | --- | --- | --- | --- | --- |
| Cc1sc2c(c1C)C(c1ccc(N3CC45CCCCC4(C3)CN(c3ccc(C(=O)N[C@H]4CC[C@H](Oc6ccc(C#N)c(Cl)c6)CC4)nn3)C5)cc1)=N[C@@H](C)c1nnc(C)n1-2 (stereo partly drawn) [I-766] | < 500 | > 3000 | < 500 | – | – | – |
| Cc1sc2c(c1C)C(c1ccc(N3CCC4(CC3)CCN(c3ccc(C(=O)N[C@H]5CC[C@H](Oc6ccc(C#N)c(Cl)c6)CC5)nn3)C4)cc1F)=N[C@@H](C)c1nnc(C)n1-2 [I-767] | – | – | – | < 500 | < 500 | < 500 |
| Cc1sc2c(c1C)C(c1ccc(CC3CC4(CCCN(c5ccc(C(=O)N[C@H]6CC[C@H](Oc7ccc(C#N)c(Cl)c7)CC6)nn5)C4)C3)cn1)=NC(Cc1ncco1)c1nnc(C)n1-2 (stereo partly drawn) [I-768] | – | – | < 500 | < 500 | > 3000 | – |
| Cc1sc2c(c1C)C(c1ccc(CC3CC4(CCCN(c5ccc(C(=O)N[C@H]6CC[C@H](Oc7ccc(C#N)c(Cl)c7)CC6)nn5)C4)C3)cn1)=NC(Cc1ncco1)c1nnc(C)n1-2 (stereo partly drawn) [I-769] | – | – | – | > 3000 | > 3000 | < 500 |
| Cc1sc2c(c1C)C(c1ccc(CC3CC4(CCCN(c5ccc(C(=O)N[C@H]6CC[C@H](Oc7ccc(C#N)c(Cl)c7)CC6)nn5)C4)C3)cn1)=NC(Cc1ncco1)c1nnc(C)n1-2 (stereo partly drawn) [I-770] | – | – | – | < 500 | < 500 | < 500 |
| Cc1sc2c(c1C)C(c1ccc(CC3CC4(CCCN(c5ccc(C(=O)N[C@H]6CC[C@H](Oc7ccc(C#N)c(Cl)c7)CC6)nn5)C4)C3)cn1)=NC(Cc1ncco1)c1nnc(C)n1-2 (stereo partly drawn) [I-771] | – | – | – | < 500 | < 500 | < 500 |
| Cc1sc2c(c1C)C(c1ccc(N3CC(C4CCC(Cc5ccc(C(=O)N[C@H]6CC[C@H](Oc7ccc(C#N)c(Cl)c7)CC6)nn5)CC4)C3)cc1)=N[C@@H](Cc1ncco1)c1nnc(C)n1-2 (stereo partly drawn) [I-772] | < 500 | 500 to 1500 | < 500 | – | – | – |
| Cc1sc2c(c1C)C(c1ccc(NCC3(F)CCN(c4ncc(C(=O)N[C@H]5CC[C@H](Oc6ccc(C#N)c(Cl)c6)CC5)cn4)CC3)cc1)=NC(Cc1ncco1)c1nnc(C)n1-2 (stereo partly drawn) [I-784] | < 500 | < 500 | < 500 | – | – | – |
| Cc1sc2c(c1C)C(c1ccc(N3C4CCC3CN(c3ncc(C(=O)N[C@H]5CC[C@H](Oc6ccc(C#N)c(Cl)c6)CC5)cn3)C4)cc1)=NC(Cc1ncco1)c1nnc(C)n1-2 (stereo partly drawn) [I-785] | – | – | > 3000 | < 500 | 500 to 1500 | – |
| Cc1sc2c(c1C)C(c1ccc(NCC3CCN(c4ncc(C(=O)N[C@H]5CC[C@H](Oc6ccc(C#N)c(Cl)c6)CC5)cn4)CC3)cc1)=NC(Cc1ncco1)c1nnc(C)n1-2 (stereo partly drawn) [I-786] | < 500 | < 500 | < 500 | – | – | – |
| Cc1sc2c(c1C)C(c1ccc(NCC3CCCCN3c3ncc(C(=O)N[C@H]4CC[C@H](Oc5ccc(C#N)c(Cl)c5)CC4)cn3)cc1)=NC(Cc1ncco1)c1nnc(C)n1-2 (stereo partly drawn) [I-787] | < 500 | < 500 | 500 to 1500 | – | – | – |
| Cc1sc2c(c1C)C(c1ccc(NC3CCCN(c4ncc(C(=O)N[C@H]5CC[C@H](Oc6ccc(C#N)c(Cl)c6)CC5)cn4)CC3)cc1)=NC(Cc1ncco1)c1nnc(C)n1-2 (stereo partly drawn) [I-789] | < 500 | < 500 | < 500 | – | – | – |
| Cc1sc2c(c1C)C(c1ccc(N[C@H]3CC[C@H](Nc4ncc(C(=O)N[C@H]5CC[C@H](Oc6ccc(C#N)c(Cl)c6)CC5)cn4)CC3)cc1)=NC(Cc1ncco1)c1nnc(C)n1-2 (stereo partly drawn) [I-790] | < 500 | < 500 | < 500 | – | – | – |
| Cc1sc2c(c1C)C(c1ccc(N3CCC(N4CCN(c5ncc(C(=O)N[C@H]6CC[C@H](Oc7ccc(C#N)c(Cl)c7)CC6)cn5)CC4)CC3)cc1)=NC(Cc1ncco1)c1nnc(C)n1-2 (stereo partly drawn) [I-792] | < 500 | < 500 | < 500 | – | – | – |
| Cc1sc2c(c1C)C(c1ccc(NCCCN3CCN(c4ncc(C(=O)N[C@H]5CC[C@H](Oc6ccc(C#N)c(Cl)c6)CC5)cn4)CC3)cc1)=NC(Cc1ncco1)c1nnc(C)n1-2 (stereo partly drawn) [I-793] | < 500 | < 500 | < 500 | – | – | – |
| Cc1sc2c(c1C)C(c1ccc(N3CCOC4(CCN(c5ncc(C(=O)N[C@H]6CC[C@H](Oc7ccc(C#N)c(Cl)c7)CC6)cn5)CC4)C3)cc1)=NC(Cc1ncco1)c1nnc(C)n1-2 (stereo partly drawn) [I-794] | < 500 | > 3000 | < 500 | – | – | – |
| Cc1sc2c(c1C)C(c1ccc(N3CC[C@@H](CNc4ncc(C(=O)N[C@H]5CC[C@H](Oc6ccc(C#N)c(Cl)c6)CC5)cn4)C3)cc1)=NC(Cc1ncco1)c1nnc(C)n1-2 (stereo partly drawn) [I-795] | < 500 | < 500 | 500 to 1500 | – | – | – |
| Cc1sc2c(c1C)C(c1ccc(N[C@H]3CC[C@H](CNc4ncc(C(=O)N[C@H]5CC[C@H](Oc6ccc(C#N)c(Cl)c6)CC5)cn4)CC3)cc1)=NC(Cc1ncco1)c1nnc(C)n1-2 (stereo partly drawn) [I-796] | < 500 | < 500 | < 500 | – | – | – |
| Cc1sc2c(c1C)C(c1ccc(N3CCCC(CN(C)c4ncc(C(=O)N[C@H]5CC[C@H](Oc6ccc(C#N)c(Cl)c6)CC5)cn4)C3)cc1)=NC(Cc1ncco1)c1nnc(C)n1-2 (stereo partly drawn) [I-797, N-((1r,4r)-4-(3-chloro-4-cyanophenoxy)cyclohexyl)-2-(methyl((1-(4-(2,3,9-trimethyl-6-(oxazol-2-ylmethyl)-6H-thieno[3,2-f][1,2,4]triazolo[4,3-a][1,4]diazepin-4-yl)phenyl)piperidin-3-yl)methyl)amino)pyrimidine-5-carboxamide] | < 500 | < 500 | < 500 | – | – | – |
| Cc1sc2c(c1C)C(c1ccc(N3CCN(C4CCN(c5ncc(C(=O)N[C@H]6CC[C@H](Oc7ccc(C#N)c(Cl)c7)CC6)cn5)CC4)CC3)cc1)=NC(Cc1ncco1)c1nnc(C)n1-2 (stereo partly drawn) [I-798] | < 500 | < 500 | < 500 | – | – | – |
| Cc1sc2c(c1C)C(c1ccc(NC3CC4CCCC(C3)N4c3ncc(C(=O)N[C@H]4CC[C@H](Oc5ccc(C#N)c(Cl)c5)CC4)cn3)cc1)=NC(Cc1ncco1)c1nnc(C)n1-2 (stereo partly drawn) [I-799] | – | – | < 500 | < 500 | > 3000 | – |
| Cc1sc2c(c1C)C(c1ccc(NCCC3CCCN(c4ncc(C(=O)N[C@H]5CC[C@H](Oc6ccc(C#N)c(Cl)c6)CC5)cn4)C3)cc1)=NC(Cc1ncco1)c1nnc(C)n1-2 (stereo partly drawn) [I-800] | < 500 | < 500 | < 500 | – | – | – |
| Cc1sc2c(c1C)C(c1ccc(N[C@@H]3CCC[C@H](Nc4ncc(C(=O)N[C@H]5CC[C@H](Oc6ccc(C#N)c(Cl)c6)CC5)cn4)C3)cc1)=NC(Cc1ncco1)c1nnc(C)n1-2 (stereo partly drawn) [I-801] | < 500 | < 500 | < 500 | – | – | – |
| Cc1sc2c(c1C)C(c1ccc(N3C4CC(=O)CC3CN(c3ncc(C(=O)N[C@H]5CC[C@H](Oc6ccc(C#N)c(Cl)c6)CC5)cn3)C4)cc1)=NC(Cc1ncco1)c1nnc(C)n1-2 (stereo partly drawn) [I-802] | – | – | < 500 | < 500 | 500 to 1500 | – |
| Cc1sc2c(c1C)C(c1ccc(N[C@H]3CCCCN(c4ncc(C(=O)N[C@H]5CC[C@H](Oc6ccc(C#N)c(Cl)c6)CC5)cn4)C3)cc1)=NC(Cc1ncco1)c1nnc(C)n1-2 (stereo partly drawn) [I-803] | < 500 | > 3000 | < 500 | – | – | – |
| Cc1sc2c(c1C)C(c1ccc(N3CCC4(CCCN(c5ncc(C(=O)N[C@H]6CC[C@H](Oc7ccc(C#N)c(Cl)c7)CC6)cn5)C4)C3)cc1)=NC(Cc1ncco1)c1nnc(C)n1-2 (stereo partly drawn) [I-804] | < 500 | > 3000 | < 500 | – | – | – |
| Cc1sc2c(c1C)C(c1ccc(N3C[C@@H]4[C@H](C3)[C@H]4Nc3ncc(C(=O)N[C@H]4CC[C@H](Oc5ccc(C#N)c(Cl)c5)CC4)cn3)cc1)=NC(Cc1ncco1)c1nnc(C)n1-2 (stereo partly drawn) [I-805] | < 500 | < 500 | < 500 | – | – | – |
| Cc1sc2c(c1C)C(c1ccc(NCCCC3CCN(c4ncc(C(=O)N[C@H]5CC[C@H](Oc6ccc(C#N)c(Cl)c6)CC5)cn4)CC3)cc1)=NC(Cc1ncco1)c1nnc(C)n1-2 (stereo partly drawn) [I-806] | < 500 | < 500 | < 500 | – | – | – |
| Cc1sc2c(c1C)C(c1ccc(NC[C@H]3CC[C@H](CNc4ncc(C(=O)N[C@H]5CC[C@H](Oc6ccc(C#N)c(Cl)c6)CC5)cn4)CC3)cc1)=NC(Cc1ncco1)c1nnc(C)n1-2 (stereo partly drawn) [I-807] | < 500 | < 500 | < 500 | – | – | – |
